Assay results taken from patent US12673915B2, “Precursor compound of hexahydro-beta-acid component compound, feed composition and use thereof” (WISORIG TECHNOLOGIES PTE. LIMITED, priority 2020, dated 2026).

Assays:
[1] = system: Duroc×Landrace×Yorkshire cross-bred bacon-type piglets; experiment: Effect on the production performance of hogs (14-day feeding trial); type: in vivo; details: 25 ppm in feed; for ADFI (average daily feed intake) / ADG (average daily weight gain) / FCR (feed conversion ratio): 14 days, piglets
Text: 480 67-day-old Duroc×Landrace×Yorkshire cross-bred bacon-type piglets with similar body weight, were randomly divided into 16 groups, with 3 replications per group, 10 piglets per replication and equal amounts of males and females. The pig pen and tools were sterilized before the trial. In the trial, the piglets were kept in separate regions in the same pig pen under the same feeding and management conditions, were given a free hand with the feed and the water, and were fed twice a day. The groups were known as control group (group 1) and test groups 2 to 16. The piglets of the control group were fed with basal formula feed only, while those of the test groups 2 to 16 were respectively fed with basal formula feed mixed with different additives, wherein the active ingredient of the additives was a hexahydro-β-acid compound or a prodrug of a hexahydro-β-acid compound provide herein, and the content thereof in the feed was 5 or 25 ppm as shown in Table 4.
The trial lasted for 14 days. During the trial, each test group was not fed with other antioxidants or growth enhancers. On the 14th day, each test group was fed with no feed but water for 12 hours, and the piglets of each replication as one unit were weighed to calculate the average daily feed intake (ADFI, g/d per piglet), the average daily weight gain (ADG, g/d per piglet), and the feed conversion ratio (FCR). Average daily feed intake=(Total weight of provided feed−Weight of residual feed)/(Days of the trial×Number of piglets in each replicate) Average daily weight gain=(final average body weight−initial average body weight)/Days of the trial Feed conversion ratio=average daily feed intake/average daily weight gain

[2] = Long-term stability in feeds at room temperature (25° C.±2° C., RH 60%±10%; HPLC); type: physicochemical; details: for stability / content in feeds at room temperature (in words): during the testing period
Text: Feeds: ZUSF's premixed feed (A mixture of crushed Feed A and crushed Feed B at a weight ratio of 2:1, wherein Feed A was a 5.33% multi-premixed feed for piglets from ZUSF's Hao-Ru-Zhen-Jing, and B was a 2.67% multi-premixed feed for piglets from ZUSF's Hao-Ru-Zhen-Jing); creep feed for piglets from CP FEED; INSIGHTER's feed for broiler; 4% premixed feed from GUANGDONG CO-POWER.
Preparation of a sample of 1% premix of Ingredient: 1 g of an ingredient was respectively weighed out and evenly mixed with 99 g of corncob meal in a mixer to give a sample of 1% premix of an ingredient.
Preparation of a sample of 500 ppm feed of an ingredient: The sample of 1% premix of an ingredient was diluted step by step using the ZUSF's remixed feed to 5000 ppm and 500 ppm to give the sample of 500 ppm feed of an ingredient for later testing.
Preparation of a sample of 100 ppm feed of an ingredient: sample of 1% premix of an ingredient was diluted step by step using the creep feed for piglets from CP FEED to 1000 ppm and then 100 ppm to give the sample of 100 ppm feed of an ingredient for later testing.
Preparation of a sample of 100 ppm feed of an ingredient: The sample of 1% premix of an ingredient was diluted step by step using the INSIGHTER's feed for broiler to 1000 ppm and 100 ppm to give the sample of 100 ppm feed of an ingredient for later testing.
Preparation of a sample of 2000 ppm feed of an ingredient: The sample of 1% premix of an ingredient was diluted step by step using the 4% premixed feed from GUANGDONG CO-POWER to 5000 ppm and 2000 ppm to give the sample of 2000 ppm feed of an ingredient for later testing.
Method: Three replications of each feed sample were tested at the condition of 25° C.±2° C. and RH 60%±10%, wherein the replications of each feed sample were sampled in parallel for HPLC analysis on day 5, day 10, day 15, day 30, day 60, and day 90.
25.0 mg of an ingredient was accurately weighed out and dissolved in an appropriate amount of methanol or n-hexane by ultrasonication. The solution was then transferred to a volumetric flask and diluted to 50 mL to give a 500 ppm (by wt.) stock solution. The samples from the stock solution were diluted with methanol or n-hexane respectively to a concentration of 10 ppm, 25 ppm, 50 ppm, 100 ppm, and 250 ppm of work solution, and then the working solutions were filtered by 0.22 μm organic membranes. Between the concentration of a sample and the response value of HPLC peak area thereof, the linearity was adjusted and detected to give a standard curve.
5.0000 g of the samples sampled at different time intervals were respectively accurately weighed out, and dissolved in 25 mL of methanol or n-hexane by ultrasonication for 10 minutes. The resulting solutions were filtered by organic membranes and then analyzed by HPLC.
• Equipment: Waters e2695 with PDA detector. • Mobile phase: 0.02% phosphoric acid:methanol=5:95 (v:v). • Column: Symmetry Cis column (Waters; 250 mm×4.6 mm, 5 μm). • Wavelength: 235 nm. • Temperature of the Column: 25° C. • Injection volume: 10 μL. • Flow rate: 1 mL/min. Normal Phase Chromatography: • Equipment: Shimadzu LC-14C/SPD-15C. • Column: SuperSil NH2 column ([…]; 250 mm×4.6 mm). • Mobile phase: n-hexane:isopropanol=60:40 (v:v). • Wavelength: 235 nm. • Temperature of the Column: 25° C. • Injection volume: 20 μL. • Flow rate: 1 mL/min. 3: Results

[3] = 100 ppm in INSIGHTER's broiler feed, Day 5
[4] = 100 ppm in INSIGHTER's broiler feed, Day 15
[5] = 100 ppm in INSIGHTER's broiler feed, Day 30
[6] = 100 ppm in INSIGHTER's broiler feed, Day 60
[7] = 100 ppm in INSIGHTER's broiler feed, Day 90
[8] = 100 ppm in creep feed for piglets from CP FEED, Day 5
[9] = 100 ppm in creep feed for piglets from CP FEED, Day 15
[10] = 100 ppm in creep feed for piglets from CP FEED, Day 30
[11] = 100 ppm in creep feed for piglets from CP FEED, Day 60
[12] = 100 ppm in creep feed for piglets from CP FEED, Day 90
[13] = 500 ppm in ZUSF's premixed feed, Day 15
[14] = 500 ppm in ZUSF's premixed feed, Day 30
[15] = 500 ppm in ZUSF's premixed feed, Day 60
[16] = 500 ppm in ZUSF's premixed feed, Day 90

| Compound | ADFI (average daily feed intake) [1] [g/d per piglet] | ADG (average daily weight gain) [1] [g/d per piglet] | FCR (feed conversion ratio) [1] | Residual amount of active ingredient [2, 3] [%] | Residual amount of active ingredient [2, 4] [%] | Residual amount of active ingredient [2, 5] [%] | Residual amount of active ingredient [2, 6] [%] | Residual amount of active ingredient [2, 8] [%] | Residual amount of active ingredient [2, 9] [%] | Residual amount of active ingredient [2, 10] [%] | Residual amount of active ingredient [2, 11] [%] | Residual amount of active ingredient [2, 12] [%] | further results |
| --- | --- | --- | --- | --- | --- | --- | --- | --- | --- | --- | --- | --- | --- |
| CCCC(=O)OC1=C(CCC(C)C)C(=O)C(CCC(C)C)(CCC(C)C)C(O)=C1C(=O)C(C)CC (centres unmarked) [Hexahydro-adlupulone mono-butyrate, hexahydro-adlupulone mono-butyrate] | 883 | 398 | 2.221 |  |  |  |  |  |  |  |  |  |  |
| CCC(=O)OC1=C(CCC(C)C)C(=O)C(CCC(C)C)(CCC(C)C)C(O)=C1C(=O)C(C)CC (centres unmarked) [Hexahydro-adlupulone mono-propionate, hexahydro-adlupulone mono-propionate] | 876 | 393 | 2.228 |  |  |  |  |  |  |  |  |  |  |
| CCC(C)C(=O)C1=C(O)C(CCC(C)C)(CCC(C)C)C(=O)C(CCC(C)C)=C1O (centres unmarked) [Hexahydro-adlupulone, reference compound] | 860 | 384 | 2.240 |  |  |  |  |  |  |  |  |  |  |
| CCCC(=O)OC1=C(CCC(C)C)C(=O)C(CCC(C)C)(CCC(C)C)C(OC(=O)CCC)=C1C(=O)C(C)C [Hexahydro-colupulone di-butyrate, hexahydro-colupulone di-butyrate] | 950 | 413 | 2.298 |  |  |  |  |  |  |  |  |  |  |
| CCC(=O)OC1=C(CCC(C)C)C(=O)C(CCC(C)C)(CCC(C)C)C(OC(=O)CC)=C1C(=O)C(C)C [Hexahydro-colupulone di-propionate, hexahydro-colupulone di-propionate] | 926 | 415 | 2.231 |  |  |  |  |  |  |  |  |  |  |
| CCCCCCCCCCCC(=O)OC1=C(CCC(C)C)C(=O)C(CCC(C)C)(CCC(C)C)C(O)=C1C(=O)C(C)C [hexahydro-colupulone mono-laurate] | 918 | 383 | 2.399 | 99.63 | 99.65 | 99.68 | 98.68 |  |  |  |  |  | Residual amount of active ingredient [2, 7]: 98.47%; Residual amount of active ingredient ([2]; 1000 ppm in INSIGHTER's broiler feed, Day 5): 101.19%; Residual amount of active ingredient ([2]; 1000 ppm in INSIGHTER's broiler feed, Day 15): 101.72%; Residual amount of active ingredient ([2]; 1000 ppm in INSIGHTER's broiler feed, Day 30): 98.60%; Residual amount of active ingredient ([2]; 1000 ppm in INSIGHTER's broiler feed, Day 60): 97.85%; Residual amount of active ingredient ([2]; 1000 ppm in INSIGHTER's broiler feed, Day 90): 95.26%; effects on the performance of piglets compared with mono-acetate and mono-butyrate (in words) [1]: not as significant |
| disodium salt of hexahydro-colupulone mono-phosphate [reference compound] |  |  |  | 86.64 | 83.77 | 81.32 | 76.53 | 66.59 | 58.39 | 55.80 | 47.76 | 44.33 | Residual amount of active ingredient [2, 7]: 62.97% |
| hexahydro-colupulone mono-hexanoate | 913 | 383 | 2.386 | 98.90 | 97.72 | 96.58 | 95.77 | 102.18 | 96.14 | 95.30 | 95.20 | 95.55 | Residual amount of active ingredient [2, 13]: 87.50%; Residual amount of active ingredient [2, 14]: 89.00%; Residual amount of active ingredient [2, 15]: 86.07%; Residual amount of active ingredient [2, 16]: 83.77%; stability / content in feeds at room temperature (in words) [2]: relatively poor in some of the feeds; effects on the performance of piglets compared with mono-acetate and mono-butyrate (in words) [1]: not as significant |
| hexahydro-colupulone mono-pentanoate |  |  |  | 98.84 | 98.12 | 97.73 | 96.64 | 100.94 | 98.82 | 96.92 | 96.01 | 95.61 | Residual amount of active ingredient [2, 13]: 94.29%; Residual amount of active ingredient [2, 14]: 94.80%; Residual amount of active ingredient [2, 15]: 88.17%; Residual amount of active ingredient [2, 16]: 89.14%; stability / content in feeds at room temperature (in words) [2]: relatively poor in some of the feeds |
